According to paper PMC13128454, “Mutant p53 protein accumulation is selectively targetable by proximity-inducing drugs” (Nature Chemical Biology, 2025):
Where “and” joins values, the source holds several entries; their conditions need not be identical. Equal entries are not always repeated. Where two headings read alike, the source gives them in different places.

What was measured:
[1] = system: Halo–p53-Y220C ΔTAD–mCherry 293T cells versus parental 293T cells; experiment: flow-cytometry growth competition; assay type: cell-based; conditions: for activity / difference in cell survival in competition: 8-day competition; for normalized_mCherry_percentage: Y220C, day 8, normalized to DMSO; for Viability competition, AVERAGE: average of 3 replicates; for EC50: growth competition analyzed on day 10, n = 3, read-out: Competition EC50; for IC50 / Emax: viability competition (sheet 5B); for Emax: lowest average of sheet 5A; for mCherry_percent: 8 days, untreated 39.76
Experimental: (§1) Cells with and without a fluorescent marker (for example, Halo–p53–mCherry) were mixed and the resulting solution was plated in six-well plates or 10-cm dishes at low density; compound was added at varying concentrations. After reaching confluence, cells were passaged and retreated with compound if needed. Otherwise, cells were trypsinized, washed and resuspended in complete growth medium in 96-well plates or tubes for flow cytometry. Untreated cell mixtures were used to establish gates separating the fluorophore^+/− populations. Analysis was conducted on a CytoFLEX LX flow cytometer.

[2] = target: T1, p53-Y220C–PLK1 ternary complex (Homo sapiens, UniProt P04637+P53350, M133L/N239Y/N268D/V203A/Y220C); experiment: NanoBiT ternary complex assay in cotransfected 293T cells; assay type: cell-based
T1 construct: NLS–LgBiT–p53-Y220C (DBD) and mEGFP–PLK1–SmBiT; expressed in transfected cells; host or cells: 293T cells, transient cotransfection
Excerpt: After 1 day, the cells were passaged into 384-well plates and treated with varying concentrations of compound.

[3] = system: Halo–p53-R273H (FL)–mCherry 293T cells versus parental 293T cells; experiment: flow-cytometry growth competition; assay type: cell-based
Experimental: as §1

[4] = system: Calu-1 cells stably expressing Halo–p53-R273H (FL)–mCherry versus parental Calu-1 cells; experiment: flow-cytometry growth competition; assay type: cell-based; conditions: sheet S2E
Experimental: as §1

WEE1 = system: WEE1; design: method as in PMID 19887545; conditions: cell-free; read-out: IC50 for cell-free WEE1 inhibition; cited from earlier work
[5] = system: cancer cell lines across DepMap; design: method as in DepMap; conditions: antiproliferative; PRISM OncRef; ref DepMap; read-out: median IC50 across DepMap; cited from earlier work
MFE319 cells = experiment: CellTiter-Glo cell viability; assay type: cell-based; design: p5301_AUC_to_10uM / AUC_rezatapopt: scale not given here; conditions: MFE319
Experimental: (§2) Cells were plated in 384-well plates (typically 1,500 cells per well) with varying concentrations of compounds, with a total volume of 50 μl per well. CTG reagent was added (25 μl) to the solutions, mixed and read out using an EnVision 2105 multimode plate reader.

DU145 cells = experiment: CellTiter-Glo cell viability; assay type: cell-based; design: AUC_rezatapopt: unit not given beside the values
Experimental: as §2

HepG2 cells = experiment: CellTiter-Glo cell viability; assay type: cell-based; design: AUC_rezatapopt: unit not given beside the values
Experimental: as §2

Huh7 cells = experiment: CellTiter-Glo cell viability; assay type: cell-based; design: AUC_rezatapopt: unit not given beside the values
Experimental: as §2

LNCaP cells = experiment: CellTiter-Glo cell viability; assay type: cell-based; design: AUC_rezatapopt: unit not given beside the values; conditions: LNCaP
Experimental: as §2

MCF7 cells = experiment: CellTiter-Glo cell viability; assay type: cell-based; design: AUC_rezatapopt: unit not given beside the values
Experimental: as §2

MFE296 cells = experiment: CellTiter-Glo cell viability; assay type: cell-based; design: AUC_rezatapopt: unit not given beside the values
Experimental: as §2

NUGC-3 cells = experiment: CellTiter-Glo cell viability; assay type: cell-based; design: AUC_rezatapopt: unit not given beside the values; conditions: NUGC3
Experimental: as §2

p53-Y220C = conditions: cited from earlier work
[6] = 24 h, n = 4, read-out: NanoBiT EC50

O=C(/C=C\n1cnc(-c2cc(C(F)(F)F)cc(C(F)(F)F)c2)n1)NNc1cnccn1 [selinexor]
activity / difference in cell survival in competition [1]: did not observe any activity
normalized_mCherry_percentage ([1]; 1 nM): 98.56%
normalized_mCherry_percentage ([1]; 10 nM): 98.63%
normalized_mCherry_percentage ([1]; 100 nM): 103.2%
normalized_mCherry_percentage ([1]; 1 uM): 99.86%

AP1867-C8-BI2536
activity / difference in cell survival in competition [1]: did not observe any activity
normalized_mCherry_percentage ([1]; 1 nM): 97.6%
normalized_mCherry_percentage ([1]; 10 nM): 98.26%
normalized_mCherry_percentage ([1]; 100 nM): 98.72%
normalized_mCherry_percentage ([1]; 1 uM): 93.37%

CC[C@@H]1C(=O)N(C)c2cnc(Nc3ccc(C(=O)NCCC(=O)N4CCC(Nc5cccc6c5cc(C#CCNc5ccc(S(C)(=O)=O)cc5OC)n6CC(F)(F)F)CC4)cc3OC)nc2N1C1CCCC1 [PMV6-C3-BI2536]
Viability competition, AVERAGE ([1]; Concentration (nM) 10): 0.6993
Viability competition, Replicate 1-3 ([1]; Concentration (nM) 10, listed as C3): 0.706 and 0.7024 and 0.6895
Viability competition, AVERAGE ([1]; Concentration (nM) 100): 0.1737
Viability competition, Replicate 1-3 ([1]; Concentration (nM) 100, listed as C3): 0.1753 and 0.1712 and 0.1746
Viability competition, AVERAGE ([1]; Concentration (nM) 500): 0.1322
Viability competition, Replicate 1-3 ([1]; Concentration (nM) 500, listed as C3): 0.1474 and 0.1221 and 0.127
Viability competition, AVERAGE ([1]; Concentration (nM) 1000): 0.1085
Viability competition, Replicate 1-3 ([1]; Concentration (nM) 1000, listed as C3): 0.1425 and 0.0972 and 0.0859
Viability competition, AVERAGE ([1]; Concentration (nM) 2000): 0.0794
Viability competition, Replicate 1-3 ([1]; Concentration (nM) 2000, listed as C3): 0.0894 and 0.0623 and 0.0865
Viability competition, AVERAGE ([1]; Concentration (nM) 5000): 0.1321
Viability competition, Replicate 1-3 ([1]; Concentration (nM) 5000, listed as C3): 0.1277 and 0.1154 and 0.1531
potency versus p53-01 in the competition assay ([1]; day 10): over 1.5 orders of magnitude
EC50 [1]: 25 nM
IC50 [1]: 25.3 nM
Emax [1]: 0.0794
EC50 [2, 6]: 410 nM
NanoBiT mean_norm ([2]; Concentration 19.5312): 1.06
NanoBiT mean_norm ([2]; Concentration 39.0625): 1.117
NanoBiT mean_norm ([2]; Concentration 78.125): 1.1621
NanoBiT mean_norm ([2]; Concentration 156.25): 1.171
NanoBiT mean_norm ([2]; Concentration 312.5): 1.264
NanoBiT mean_norm ([2]; Concentration 625): 1.76
NanoBiT mean_norm ([2]; Concentration 1250): 1.765
NanoBiT mean_norm ([2]; Concentration 2500): 1.801
NanoBiT mean_norm ([2]; Concentration 5000): 1.856
NanoBiT mean_norm ([2]; Concentration 10000): 1.853
Max_effect ([2]; sheet 5C): 1.856
EC50 ([2]; sheet 5C, read-out: EC50): 406 nM

C=CCn1c(=O)c2cnc(Nc3ccc(N4CCN(C(=O)CCOCCOCCC(=O)NCCOCCOCCCCCCCl)CC4)cc3)nc2n1-c1cccc(C(C)(C)O)n1 [Halo-PEG2-adavosertib]
EC50 ([3]; Homo sapiens, HEK-293T, Halo–p53-R273H (FL)–mCherry 293T cells as printed, Extended Data Fig. 2f): 41 nM
selective inhibition of proliferation in competition assay ([3]; doses between 100 nM and 1 μM, cells as printed): selectively inhibited the proliferation
mCherry_percent ([1]; 100 nM): 10.55%
mCherry_percent ([1]; 1 uM): 4.24%
mCherry_percent ([1]; 10 uM): 26.57%

CC[C@@H]1C(=O)N(C)c2cnc(Nc3ccc(C(=O)NCCOCCOCCOCCOCCC(=O)N4CCC(Nc5cccc6c5cc(C#CCNc5ccc(S(C)(=O)=O)cc5OC)n6CC(F)(F)F)CC4)cc3OC)nc2N1C1CCCC1 [PEG4 (p53-01)]
Viability competition, Replicate 1-3 ([1]; Concentration (nM) 10): 0.6959 and 0.6663 and 0.6621
Viability competition, AVERAGE ([1]; Concentration (nM) 10): 0.6748
Viability competition, Replicate 1-3 ([1]; Concentration (nM) 100): 0.7132 and 0.7004 and 0.6708
Viability competition, AVERAGE ([1]; Concentration (nM) 100): 0.6948
Viability competition, Replicate 1-3 ([1]; Concentration (nM) 500): 0.6679 and 0.6445 and 0.6361
Viability competition, AVERAGE ([1]; Concentration (nM) 500): 0.6495
Viability competition, Replicate 1-3 ([1]; Concentration (nM) 1000): 0.309 and 0.295 and 0.2813
Viability competition, AVERAGE ([1]; Concentration (nM) 1000): 0.2951
Viability competition, Replicate 1-3 ([1]; Concentration (nM) 2000): 0.1194 and 0.1119 and 0.1123
Viability competition, AVERAGE ([1]; Concentration (nM) 2000): 0.1145
Viability competition, Replicate 1-3 ([1]; Concentration (nM) 5000): 0.1698 and 0.1509 and 0.1508
Viability competition, AVERAGE ([1]; Concentration (nM) 5000): 0.1572
IC50 [1]: 851 nM
Emax [1]: 0.1145

C=CC(=O)n1c2ccccc2c2cc(C(=O)NCc3cn(CCOCCOCCOCCOCCNC(=O)c4ccc(Nc5ncc6c(n5)N(C5CCCC5)[C@H](CC)C(=O)N6C)c(OC)c4)nn3)ccc21 [KG5-PEG4-BI2536]
activity / difference in cell survival in competition [1]: did not observe any difference in cell survival
normalized_mCherry_percentage ([1]; 1 nM): 98.99%
normalized_mCherry_percentage ([1]; 10 nM): 99.96%
normalized_mCherry_percentage ([1]; 100 nM): 100.2%
normalized_mCherry_percentage ([1]; 1 uM): 99.83%

PEG6
Viability competition, Replicate 1-3 ([1]; Concentration (nM) 10): 0.5239 and 0.6471 and 0.659
Viability competition, AVERAGE ([1]; Concentration (nM) 10): 0.61
Viability competition, Replicate 1-3 ([1]; Concentration (nM) 100): 0.5384 and 0.6799 and 0.6767
Viability competition, AVERAGE ([1]; Concentration (nM) 100): 0.6317
Viability competition, Replicate 1-3 ([1]; Concentration (nM) 500): 0.4819 and 0.6302 and 0.6328
Viability competition, AVERAGE ([1]; Concentration (nM) 500): 0.5816
Viability competition, Replicate 1-3 ([1]; Concentration (nM) 1000): 0.2653 and 0.295 and 0.3011
Viability competition, AVERAGE ([1]; Concentration (nM) 1000): 0.2871
Viability competition, Replicate 1-3 ([1]; Concentration (nM) 2000): 0.064 and 0.0676 and 0.0785
Viability competition, AVERAGE ([1]; Concentration (nM) 2000): 0.07003
Viability competition, Replicate 1-3 ([1]; Concentration (nM) 5000): 0.1113 and 0.1194 and 0.102
Viability competition, AVERAGE ([1]; Concentration (nM) 5000): 0.1109
EC50 [1]: 900 nM
IC50 [1]: 899 nM
Emax [1]: 0.07003
EC50 [2, 6]: 3680 nM
NanoBiT mean_norm ([2]; Concentration 19.5312): 1.005
NanoBiT mean_norm ([2]; Concentration 39.0625): 0.9853
NanoBiT mean_norm ([2]; Concentration 78.125): 1.029
NanoBiT mean_norm ([2]; Concentration 156.25): 1.026
NanoBiT mean_norm ([2]; Concentration 312.5): 1.029
NanoBiT mean_norm ([2]; Concentration 625): 1.011
NanoBiT mean_norm ([2]; Concentration 1250): 1.186
NanoBiT mean_norm ([2]; Concentration 2500): 1.25
NanoBiT mean_norm ([2]; Concentration 5000): 1.542
NanoBiT mean_norm ([2]; Concentration 10000): 1.6853
Max_effect ([2]; sheet 5C): 1.6853
EC50 ([2]; sheet 5C, read-out: EC50): 3680 nM

CC[C@@H]1C(=O)N(C)c2cnc(Nc3ccc(C(=O)NCCOCCOCCC(=O)NCCOCCOCCCCCCCl)cc3OC)nc2N1C1CCCC1 [HLDA-131]
mCherry_percent ([4]; 1 nM): 83.77%
mCherry_percent ([4]; 10 nM): 55.02%
mCherry_percent ([4]; 100 nM): 4.8%
mCherry_percent ([4]; 1 uM): 3.52%

C=CCn1c(=O)c2cnc(Nc3ccc(N4CCN(C)CC4)cc3)nc2n1-c1cccc(C(C)(C)O)n1 [adavosertib]
IC50 (WEE1): 5.2 nM
IC50 [5]: 348 nM

CNC(=O)c1ccc(NCC#Cc2cc3c(N[C@@H]4CCN(C)C[C@@H]4F)cccc3n2CC(F)(F)F)c(OC)c1 [rezatapopt]
AUC_rezatapopt (MFE319 cells): 0.8525
AUC_rezatapopt (DU145 cells): 1
AUC_rezatapopt (HepG2 cells): 0.9433
AUC_rezatapopt (Huh7 cells): 0.6525
AUC_rezatapopt (LNCaP cells): 0.9713
AUC_rezatapopt (MCF7 cells): 0.9331
AUC_rezatapopt (MFE296 cells): 0.5683
AUC_rezatapopt (NUGC-3 cells): 0.5908
Kd (p53-Y220C): ~2.5 nM
